Test results: US10981906B2, “Substituted pyrrolopyridine JAK inhibitors and methods of making and using the same” (ACLARIS THERAPEUTICS, INC., priority 2017, dated 2021)
Read-outs that look alike come from different tables or passages of the source.

Experiments:
[1] = tested on: IL-2 stimulated STAT5 phosphorylation on Tyr694 (JAK1/3); assay: JAK1/3 cellular target modulation: IL-2 stimulated phospho-STAT5 in PBMC; assay type: cell-based; conditions: IL-2 25 ng/ml, 1 hour compound preincubation, read-out: IL2-STAT5 Inhibition IC50
Excerpt: (§1) Target modulation was based upon the ability of a compound to inhibit JAK isoform specific phosphorylation of selected substrates. IL-2 stimulated STAT5 phosphorylation on Tyr694 was used to assess JAK1/3 compound selectivity. GM-CSF stimulated STAT5 phosphorylation on Tyr694 was used to assess JAK2 compound selectivity. IFNγ stimulated STAT1 phosphorylation on Tyr701 was used to assess JAK1/2 compound selectivity. For all three assays, human PBMC from frozen stocks were thawed, pelleted, resuspended in complete media (90% RPMI, 10% heat inactivated FBS, 10 mM HEPES, 47 μM 2-ME, pen/strep) and placed in wells of a 96 well V-bottom plate at 200,000 per well in 120 μl complete media. Compounds were added as 15 μl per well of 10× working stock solutions in complete media with 1% DMSO (or medium with 1% DMSO for controls) and placed on a plate shaker in a 37° C. incubator with 5% CO2 for 1 hour with gentle shaking (setting of 3). Stimulation used the addition of soluble cytokines. For the JAK1/3 phospho-STAT5 assay, 15 μl of 10× working stock recombinant human IL-2 was added to a final concentration of 25 ng/ml. For the JAK2 phospho-STAT5 assay, 15 μl of 10× working stock recombinant human GM-CSF was added to a final concentration of 5 ng/ml. For the JAK1/2 phospho-STAT1 assay, 15 μl of 10× working stock of recombinant human IFNγ was added to a final concentration of 10 ng/ml. Plates were then placed back on the plate shaker in the incubator for an additional 5, 5 and 10 minutes respectively upon which the plates were removed from the incubator, sealed with a plate sealer and the cells pelleted at 400×g for 5 minutes. After pelleting, the media was removed by aspiration and the cells were lysed in ELISA specific cell lysis buffer. The levels of phospho-STAT5 were determined using a Phospho (Tyr694)/Total STAT5a,b Whole Cell Lysate kit from Meso Scale Discovery. Levels of phospho-STAT1 were determined using a CST-PathScan Phospho-STAT1 (Tyr701) Sandwich ELISA kit.

[2] = target: JAK1 (Homo sapiens (Human), UniProt P23458); assay: JAK1 enzyme activity assay (Thermo Fisher SelectScreen Z-lyte); assay type: biochemical; conditions: 1 hour kinase reaction, read-out: JAK1 Inhibition IC50
Experimental: The inhibitory potency of candidate compounds of JAK1 done at Thermo Fisher Scientific in their Selectscreen using a Z-lyte assay. The 2×JAK1/Tyr 06 mixture is prepared in 50 mM HEPES pH 6.5, 0.01% BRIJ-35, 10 mM MgCl2, 1 mM EGTA, 0.02% NaN3. The final 10 μL of the Kinase Reaction consists of 21.2-91.5 ng JAK1 and 2 μM Tyr 06 in 50 mM HEPES pH 7.0, 0.01% BRIJ-35, 10 mM MgCl2, 1 mM EGTA, 0.01% NaN3. After the 1 hour Kinase Reaction incubation, 5 μL of a 1:128 dilution of Development Reagent is added.
(§2) Background signal is defined in the absence of enzyme and uninhibited signal is defined in the presence of vehicle (2% DMSO) alone. Compounds were evaluated in an 11 point dose-response ranging from […] to 0.34 nM. IC50 values of compounds are determined using a 4 parameter logistical fit of emission ratio as a function of the concentration of compound.

[3] = target: JAK3 (a.a. 781-1124) (Homo sapiens (Human), UniProt P52333); assay: JAK3 enzyme activity assay (SRCtide phosphorylation, Caliper); assay type: biochemical; conditions: 2.5 nM JAK3, 1 μM SRCtide, 1 uM ATP, 40 minutes; read-out: JAK3 Inhibition IC50
Experimental: The activity of JAK3 (a.a. 781-1124, ThermoFisher) was quantified by measuring the phosphorylation of SRCtide (FAM-GEEPLYWSFPAKKK-NH2). Kinase reactions were run in a 384-well Greiner plate with 2% final DMSO concentration under the buffer conditions of 20 mM HEPES, pH 7.5, 10 mM MgCl2, 0.01% BSA, and 0.0005% Tween-20. The kinase reaction components were 2.5 nM JAK3, 1 μM SRCtide peptide and 1 uM ATP. Examples were tested in dose-response starting at 2 μM (11 concentrations, 3-fold serial dilution, duplicate reactions). The reactions were incubated at room temperature for 40 minutes, then stopped by adding a 1:1 volume of 30 mM EDTA in 20 mM HEPES, pH 7.5 (15 mM EDTA final). After the reaction was stopped, the phosphorylated and unphosphorylated peptides were separated and quantified using a Caliper LC3000/EZ-Reader system and HTS Well Analyzer Software (Caliper, A PerkinElmer Company, Hopkinton, Mass.). GraFit (Erithacus Software Ltd., Horley, U.K.) was used to calculate inhibitor potency by fitting dose-response data to the 4-parameter logistical IC50 equation.
as §2

[4] = tested on: IFNγ stimulated STAT1 phosphorylation on Tyr701 (JAK1/2); assay: JAK1/2 cellular target modulation: IFNγ stimulated phospho-STAT1 in PBMC; assay type: cell-based; conditions: IFNγ 10 ng/ml, 1 hour compound preincubation, read-out: Infγ-STAT1 IC50
Excerpt: as §1

JAK3 (a.a. 781-1124), sequence (P52333 781-1124): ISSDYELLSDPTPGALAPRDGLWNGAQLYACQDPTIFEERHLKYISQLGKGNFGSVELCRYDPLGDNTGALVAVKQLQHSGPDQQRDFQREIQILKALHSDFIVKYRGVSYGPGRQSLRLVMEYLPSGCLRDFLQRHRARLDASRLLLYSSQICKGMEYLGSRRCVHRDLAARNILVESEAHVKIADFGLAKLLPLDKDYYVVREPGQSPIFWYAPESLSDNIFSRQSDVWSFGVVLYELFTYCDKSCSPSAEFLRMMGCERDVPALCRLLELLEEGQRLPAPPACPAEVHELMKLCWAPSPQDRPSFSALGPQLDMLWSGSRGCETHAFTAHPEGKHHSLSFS
JAK1, sequence (P23458 whole entry): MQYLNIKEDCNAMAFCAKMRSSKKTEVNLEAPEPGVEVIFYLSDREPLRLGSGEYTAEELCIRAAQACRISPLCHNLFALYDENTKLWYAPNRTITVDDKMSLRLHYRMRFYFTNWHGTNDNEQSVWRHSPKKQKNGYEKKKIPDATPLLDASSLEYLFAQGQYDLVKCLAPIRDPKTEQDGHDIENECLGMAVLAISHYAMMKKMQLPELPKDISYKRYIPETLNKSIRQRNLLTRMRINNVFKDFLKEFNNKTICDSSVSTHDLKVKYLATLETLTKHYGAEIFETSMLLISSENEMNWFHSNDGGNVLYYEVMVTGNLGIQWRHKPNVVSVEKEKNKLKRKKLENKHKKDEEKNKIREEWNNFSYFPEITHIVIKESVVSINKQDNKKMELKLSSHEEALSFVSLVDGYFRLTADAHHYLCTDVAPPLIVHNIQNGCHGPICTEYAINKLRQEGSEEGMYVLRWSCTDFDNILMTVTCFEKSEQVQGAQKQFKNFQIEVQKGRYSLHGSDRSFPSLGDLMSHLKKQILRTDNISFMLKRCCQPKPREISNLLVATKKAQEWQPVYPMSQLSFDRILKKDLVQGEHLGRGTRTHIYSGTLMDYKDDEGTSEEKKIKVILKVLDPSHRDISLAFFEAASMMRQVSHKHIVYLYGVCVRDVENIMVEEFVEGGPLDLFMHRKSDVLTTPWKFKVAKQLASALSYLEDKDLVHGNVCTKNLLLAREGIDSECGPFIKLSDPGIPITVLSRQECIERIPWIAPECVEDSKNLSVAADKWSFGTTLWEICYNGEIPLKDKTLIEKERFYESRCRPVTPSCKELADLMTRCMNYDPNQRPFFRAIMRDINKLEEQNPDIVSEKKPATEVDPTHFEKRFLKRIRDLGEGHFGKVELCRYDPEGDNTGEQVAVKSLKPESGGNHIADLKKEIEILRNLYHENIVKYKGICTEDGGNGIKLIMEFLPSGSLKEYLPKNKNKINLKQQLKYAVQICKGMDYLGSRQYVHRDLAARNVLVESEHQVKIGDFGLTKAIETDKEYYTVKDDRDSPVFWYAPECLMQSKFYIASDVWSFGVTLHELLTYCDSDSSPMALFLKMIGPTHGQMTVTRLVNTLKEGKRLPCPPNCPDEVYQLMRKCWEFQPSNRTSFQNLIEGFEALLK

| IC50 ([1]; Homo sapiens, PBMC) [nM] | IC50 [2] [nM] | IC50 [3] [nM] | IC50 ([4]; Homo sapiens, PBMC) [nM] | IC50 ([1]; human PBMC) [nM] | IC50 ([4]; human PBMC) [nM] | SMILES |
| --- | --- | --- | --- | --- | --- | --- |
| 100 to 1000 | 100 to 1000 | 10 to 100 | > 1000 |  |  | CCOC(=O)c1cnc2[nH]ccc2c1NC1CCC(CCC#N)C1 (single isomer, unassigned; stereoisomer 1) [Example 154, Ethyl 4-((3-(2-cyanoethyl)cyclopentyl)amino)-1H-pyrrolo[2,3-b]pyridine-5-carboxylate, single stereoisomer 1] |
|  | 100 to 1000 | 10 to 100 |  | 100 to 1000 | > 1000 | CCOC(=O)c1cnc2[nH]ccc2c1NC1CCC(CCC#N)C1 (single isomer, unassigned; stereoisomer 2) [Example 155, Ethyl 4-((3-(2-cyanoethyl)cyclopentyl)amino)-1H-pyrrolo[2,3-b]pyridine-5-carboxylate, single stereoisomer 2] |
| 100 to 1000 | 10 to 100 | 10 to 100 | > 1000 |  |  | CCOC(=O)c1cnc2[nH]ccc2c1N(C)[C@H]1CN(C(=O)CC#N)CC[C@H]1C [Example 1, ethyl 4-(((3R,4R)-1-(2-cyanoacetyl)-4-methylpiperidin-3-yl)(methyl)amino)-1H-pyrrolo[2,3-b]pyridine-5-carboxylate] |
| ≤ 100 | ≤ 10 | ≤ 10 | 100 to 1000 |  |  | CCOC(=O)c1cnc2[nH]ccc2c1N[C@H]1CN(C(=O)CC#N)CC[C@H]1C [Example 3, ethyl 4-(((3R,4R)-1-(2-cyanoacetyl)-4-methylpiperidin-3-yl)amino)-1H-pyrrolo[2,3-b]pyridine-5-carboxylate] |
| 100 to 1000 | 10 to 100 | ≤ 10 | > 1000 |  |  | COCCOC(=O)c1cnc2[nH]ccc2c1N[C@H]1CN(C(=O)CC#N)CC[C@H]1C [Example 21, 2-methoxyethyl 4-(((3R,4R)-1-(2-cyanoacetyl)-4-methylpiperidin-3-yl)amino)-1H-pyrrolo[2,3-b]pyridine-5-carboxylate] |
| ≤ 100 | ≤ 10 | ≤ 10 | 100 to 1000 |  |  | CCOC(=O)c1cnc2[nH]ccc2c1N[C@H]1CN(CCC#N)CC[C@H]1C [Example 24, ethyl 4-(((3R,4R)-1-(2-cyanoethyl)-4-methylpiperidin-3-yl)amino)-1H-pyrrolo[2,3-b]pyridine-5-carboxylate] |
| 100 to 1000 | 100 to 1000 | 100 to 1000 | > 1000 |  |  | C=CC(=O)N1CCC[C@@H](Nc2c(C(=O)OCC)cnc3[nH]ccc23)C1 [Example 34, ethyl (R)-4-((1-acryloylpiperidin-3-yl)amino)-1H-pyrrolo[2,3-b]pyridine-5-carboxylate] |
| ≤ 100 | ≤ 10 | ≤ 10 | 100 to 1000 |  |  | CCOC(=O)c1cnc2[nH]ccc2c1N[C@H]1CC[C@H](CS(=O)(=O)NC)CC1 [Example 92, ethyl 4-(((1r,4r)-4-((N-methylsulfamoyl)methyl)cyclohexyl)amino)-1H-pyrrolo[2,3-b]pyridine-5-carboxylate] |
| 100 to 1000 | 10 to 100 | 10 to 100 | > 1000 |  |  | CCOC(=O)c1cnc2[nH]ccc2c1NC1CCC(OCCC#N)C1 (stereo not drawn) [Example 113, ethyl 4-((3-(2-cyanoethoxy)cyclopentyl)amino)-1H-pyrrolo[2,3-b]pyridine-5-carboxylate] |
| ≤ 100 | ≤ 10 | ≤ 10 | ≤ 100 |  |  | CCOC(=O)c1cnc2[nH]ccc2c1N[C@@H]1CCCN(C(=O)CC#N)C1 [Example 117, ethyl (R)-4-((1-(2-cyanoacetyl)piperidin-3-yl)amino)-1H-pyrrolo[2,3-b]pyridine-5-carboxylate] |
| ≤ 100 | ≤ 10 | 10 to 100 | 100 to 1000 |  |  | COC(=O)c1cnc2[nH]ccc2c1N[C@H]1CN(C(=O)CC#N)CC[C@H]1C [Example 118, methyl 4-(((3R,4R)-1-(2-cyanoacetyl)-4-methylpiperidin-3-yl)amino)-1H-pyrrolo[2,3-b]pyridine-5-carboxylate] |
| ≤ 100 | ≤ 10 | ≤ 10 | 100 to 1000 |  |  | CCOC(=O)c1cnc2[nH]ccc2c1N[C@@H]1CCCN(CCC#N)C1 [Example 123, ethyl (R)-4-((1-(2-cyanoethyl)piperidin-3-yl)amino)-1H-pyrrolo[2,3-b]pyridine-5-carboxylate] |
| 100 to 1000 | 10 to 100 | 10 to 100 | > 1000 |  |  | CC(C)OC(=O)c1cnc2[nH]ccc2c1N[C@H]1CN(C(=O)CC#N)CC[C@H]1C [Example 124, isopropyl 4-(((3R,4R)-1-(2-cyanoacetyl)-4-methylpiperidin-3-yl)amino)-1H-pyrrolo[2,3-b]pyridine-5-carboxylate] |
| ≤ 100 | ≤ 10 | ≤ 10 | 100 to 1000 |  |  | CCCOC(=O)c1cnc2[nH]ccc2c1N[C@H]1CN(C(=O)CC#N)CC[C@H]1C [Example 125, propyl 4-(((3R,4R)-1-(2-cyanoacetyl)-4-methylpiperidin-3-yl)amino)-1H-pyrrolo[2,3-b]pyridine-5-carboxylate] |
| 100 to 1000 | 10 to 100 | 10 to 100 | > 1000 |  |  | CCOC(=O)c1cnc2[nH]ccc2c1N[C@H]1CN(C(=O)C2(C#N)CC2)CC[C@H]1C [Example 126, ethyl 4-(((3R,4R)-1-(1-cyanocyclopropane-1-carbonyl)-4-methylpiperidin-3-yl)amino)-1H-pyrrolo[2,3-b]pyridine-5-carboxylate] |
| ≤ 100 | ≤ 10 | 10 to 100 | 100 to 1000 |  |  | CCOC(=O)c1cnc2[nH]ccc2c1N[C@H]1CN(C(=O)C(C)C#N)CC[C@H]1C (stereo partly drawn) [Example 127, ethyl 4-(((3R,4R)-1-(2-cyanopropanoyl)-4-methylpiperidin-3-yl)amino)-1H-pyrrolo[2,3-b]pyridine-5-carboxylate] |
| ≤ 100 | 10 to 100 | ≤ 10 | > 1000 |  |  | CCOC(=O)c1cnc2[nH]ccc2c1N[C@@H]1CCCN(C(=O)C2(C#N)CC2)C1 [Example 128, ethyl (R)-4-((1-(1-cyanocyclopropane-1-carbonyl)piperidin-3-yl)amino)-1H-pyrrolo[2,3-b]pyridine-5-carboxylate] |
| ≤ 100 | ≤ 10 | ≤ 10 | 100 to 1000 |  |  | CCOC(=O)c1cnc2[nH]ccc2c1N[C@@H]1CCCN(C(=O)C(C)C#N)C1 (stereo partly drawn) [Example 129, ethyl 4-(((3R)-1-(2-cyanopropanoyl)piperidin-3-yl)amino)-1H-pyrrolo[2,3-b]pyridine-5-carboxylate] |
